Reference: patent US20030176436A1, “Novel heterocyclic compounds as selective bacterial DHFR inhibitors and their uses thereof” (priority 2001, published 2003)
In brackets after ≈: the same amount, converted by molar mass. Like-named read-outs stand apart in the source and are kept apart here.

What was measured:
[1] = biological target: T1, bacterial DHFR (bDHFR) (Escherichia coli, UniProt P0ABQ4); experiment: DHFR enzyme assay, Ki determination, bacterial DHFR; assay type: biochemical, E. coli
T1 construct: gift of Eric Brown, McMaster University
Method: Human and Bacterial DHFR: E. coli DHFR was kindly provided by Eric Brown of MacMaster University.
(§1) Dihydrofolic acid and NADPH were purchased from Sigma. Enzyme assays were adapted for microtitre format from a previously published procedure (2, 3). All assays were performed in a 250 μl volume in 96-well microtitre plates. Typical assays consisted of 20 nM DHFR (human or E. coli), 100 μM NADPH, and 50 μM dihydrofolic acid in 100 mM HEPES pH 8, 10 mM KCl, and 10 mM MgCl2. The assay was monitored spectrophotometrically for the conversion of NADPH to NADP+, which results in a decrease in absorbance at 340 nm.
(§2) The reaction was initiated by the addition of 125 μl of 100 μM dihydrofolic acid. The final concentrations in the assay were 20 nM DHFR, 100 μM NADPH, 50 μM dihydrofolic acid, and a range of 500 μM to 20 nM inhibitor compound. The final DMSO concentration was 2% of the total volume. Reactions were monitored as described above.

[2] = tested on: S. aureus; experiment: Microdilution antimicrobial susceptibility test (MIC); assay type: cell-based; details: Staphylococcus aureus; MIC, average; read-out: S. aureus (μg/ml) avg
Method: Stock solutions of tested compounds were prepared in N,N-dimethylformamide (DMF) at a concentration of 5 mg/mL. Working solutions of the tested compounds were then prepared from the stock solutions, in Mueller-Hinton broth (MHB) with a starting concentration of 64 μg/mL.
Bacterial inocula were prepared from overnight culture (i.e., one fresh colony from agar plate in 5 ml MHB; H. influenzae was grown in MHB with the addition of yeast extract, haematin, and NAD), centrifuged 2×5 min/3000 rpm (for S. pneumoniae and H. influenzae, 2×10 min/3000 rpm), and dispensed in 5 ml of fresh MHB each time, such that the bacterial suspension is diluted to obtain 100 colony forming units (cfu) in a microplate well (100 μl total volume).
Microplate wells were filled with two-fold dilutions of test compound (50 μl), starting with 64 μg/ml. Wells were then filled with 50 μl of bacterial inoculum (final volume: 100 μl/well). The plates were incubated at 37° C. for 18-24 hours (S. pneumoniae was grown in a CO2-enriched atmosphere).

[3] = biological target: T2, human DHFR (hDHFR) (Homo sapiens, UniProt P00374); experiment: DHFR enzyme assay, Ki determination, human DHFR; assay type: biochemical; details: Table 3
T2 construct: result in the amplification of a 186 amino acid hDHFR coding region; made in house; host or cells: E. coli Top10
T2 sequence (P00374 1-187): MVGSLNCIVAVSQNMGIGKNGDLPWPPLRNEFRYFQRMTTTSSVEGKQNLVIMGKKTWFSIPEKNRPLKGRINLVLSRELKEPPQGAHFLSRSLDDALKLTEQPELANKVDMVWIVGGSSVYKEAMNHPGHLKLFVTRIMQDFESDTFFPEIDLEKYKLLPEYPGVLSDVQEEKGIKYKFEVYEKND
Method: The human DHFR cDNA was cloned by PCR from the Human Universal Quick-clone™ cDNA purchased from Clontech.
The PCR fragment was digested with restriction enzymes NdeI and HindIII, and then ligated into a derivative of the pKK223-3 expression vector (Amersham Pharmacia). The final expression vector (pFW96.2) was transformed into E. coli Top10 F40 and hDHFR protein was induced by the addition of 1 mM IPTG followed by incubation at 37° C. for 4 hrs. Recombinant human DHFR was purified based on a previously published procedure (2).
as §1
as §2, with “Five microliters of inhibitor compound in DMSO was added to 120 μl of enzyme solution (40 nM DHFR and 200 μM NADPH). The reaction” for “The reaction”
V=(Vmax[S])/(Km(1+I/Ki)+[S]), where S=dihydrofolate, Km=Michaelis constant for dihydrofolate, I=inhibitor concentration.

[4] = average, read-out: bDHFR Ki/(μM) avg
[5] = second part of table, read-out: bDHFR

Row | SMILES | Ki [1, 4] [µM] | MIC [2] [µg/mL] | Ki ([1]; Table 3, read-out: bDHFR Ki) [µM] | Ki [3] [nM] | Ki [1, 5] [µM] | Ki ([1]; bDHFR Ki/(μM) avg, average) [µM]
1 | CCC(c1cccc2ccccc12)N(C)c1ncc2c(N)nc(N)nc2n1 (single isomer, unassigned) [Compound 41] | 0.037 | < 0.125 | – | – | – | –
2 | CN(Cc1cnc2nc(N)nc(N)c2n1)c1ccc(C(=O)NCCCCN)cc1 [Compound 2] | – | – | 0.1 to 0.499 | 1000 to 5000 | – | –
3 | Nc1nc(N)c2nc(COc3cc([N+](=O)[O-])ccc3N)cnc2n1 [Compound 13] | – | – | 0.5 to 0.999 | > 5000 | – | –
4 | Nc1nc(N)c2nc(CNc3cccc(OCc4ccccc4)c3)cnc2n1 [Compound 20] | 0.062 | 0.5 (≈ 1.34 µM) | – | – | – | –
5 | CN(Cc1cnc2nc(N)nc(N)c2n1)c1cccc([N+](=O)[O-])c1 [Compound 21] | 0.082 | < 0.125 | – | – | 0.082 | –
6 | C[C@H](c1cccc2ccccc12)N(C)c1ncc2c(N)nc(N)nc2n1 [Compound 22] | 0.002 | < 0.125 | < 0.002 | > 75000 | – | –
7 | CC(c1ccc(F)c2ccccc12)N(C)c1ncc2c(N)nc(N)nc2n1 (stereo not shown) [Compound 23] | 0.027 | 1 (≈ 2.75 µM) | – | – | – | –
8 | CC(c1cccc2ccccc12)N(C)c1ncc2c(N)nc(N)nc2n1 (stereo not shown) [Compound 24] | 0.015 | 0.25 (≈ 0.724 µM) | – | – | – | –
9 | CC(c1cccc2ccccc12)N(CCc1ccccc1)c1ncc2c(N)nc(N)nc2n1 (stereo not shown) [Compound 26] | 0.02 | 1 (≈ 2.3 µM) | – | – | – | –
10 | CC(c1c2c(cc3ccccc13)CCCC2)N(C)c1ncc2c(N)nc(N)nc2n1 (stereo not shown) [Compound 27] | 0.008 | 0.5 (≈ 1.25 µM) | – | – | – | –
11 | CC(c1ccc2c3c(cccc13)CC2)N(C)c1ncc2c(N)nc(N)nc2n1 (stereo not shown) [Compound 28] | 0.02 | < 0.125 | – | – | – | –
12 | CCOc1ccc2ccccc2c1CN(C)c1ncc2c(N)nc(N)nc2n1 [Compound 29] | 0.02 | < 0.125 | – | – | < 0.02 | –
13 | CC(c1ccc(Cl)c2ccccc12)N(C)c1ncc2c(N)nc(N)nc2n1 (stereo not shown) [Compound 30] | 0.028 | < 0.125 | – | – | 0.024 | –
14 | CC(c1c2c(cc3ccccc13)CCCC2)N(CC1CC1)c1ncc2c(N)nc(N)nc2n1 (stereo not shown) [Compound 31] | 0.024 | 1 (≈ 2.27 µM) | – | – | – | –
15 | CCN(c1ncc2c(N)nc(N)nc2n1)[C@H](C)c1ccc(C)c2ccccc12 [Compound 32] | 0.011 | 0.5 (≈ 1.34 µM) | – | – | – | –
16 | CCC(c1cccc2ccccc12)N(C)c1ncc2c(N)nc(N)nc2n1 (stereo not shown) [Compound 33] | – | 0.015 (≈ 0.0417 µM) | – | – | 0.012 | 0.012
17 | C=CCN(c1ncc2c(N)nc(N)nc2n1)C(C)c1cccc2ccccc12 (stereo not shown) [Compound 34] | 0.014 | 1 (≈ 2.69 µM) | – | – | – | –
18 | CC(c1cc(Cl)cc2ccccc12)N(C)c1ncc2c(N)nc(N)nc2n1 (stereo not shown) [Compound 35] | 0.037 | 0.5 (≈ 1.32 µM) | – | – | – | –
19 | CCN(c1ncc2c(N)nc(N)nc2n1)[C@H](C)c1csc2ccccc12 [Compound 36] | 0.005 | < 0.125 | – | – | 0.005 | –
20 | CCN(c1ncc2c(N)nc(N)nc2n1)[C@H](C)c1ccc(F)c2ccccc12 [Compound 37] | 0.003 | < 0.125 | – | – | – | –
21 | C[C@@H](c1ccc(F)c2ccccc12)N(C)c1ncc2c(N)nc(N)nc2n1 [Compound 38] | 0.06 | 0.5 (≈ 1.38 µM) | – | – | – | –
22 | CC(c1ccnc2ccccc12)N(C)c1ncc2c(N)nc(N)nc2n1 (stereo not shown) [Compound 39] | 0.015 | 0.25 (≈ 0.722 µM) | – | – | – | –
23 | CCC(c1ccc(F)c2ccccc12)N(C)c1ncc2c(N)nc(N)nc2n1 (stereo not shown) [Compound 40] | 0.004 | < 0.125 | – | – | – | –

Row | SMILES | Ki [1, 4] [µM] | MIC [2] [µg/mL] | Ki ([1]; Table 3, read-out: bDHFR Ki) [µM] | Ki [3] [nM] | Ki [1, 5] [µM] | Ki ([1]; bDHFR Ki/(μM) avg, average) [µM]
24 | CC[C@H](c1cccc2ccccc12)N(C)c1ncc2c(N)nc(N)nc2n1 [Compound 42] | 0.004 | < 0.125 | – | – | – | –
25 | CCCC(c1cccc2ccccc12)N(C)c1ncc2c(N)nc(N)nc2n1 (stereo not shown) [Compound 43] | 0.004 | < 0.125 | – | – | – | –
26 | CCC(c1ccc(Cl)c2ccccc12)N(C)c1ncc2c(N)nc(N)nc2n1 (stereo not shown) [Compound 44] | 0.004 | < 0.125 | – | – | – | –
27 | CCN(c1ncc2c(N)nc(N)nc2n1)C(C)c1cccc2ccccc12 (stereo not shown) [Compound 45] | 0.008 | 2 (≈ 5.56 µM) | – | – | – | –
28 | C=CCN(Cc1cnc2nc(N)nc(N)c2n1)c1ccccc1 [Compound 46] | 0.093 | 2 (≈ 6.51 µM) | – | – | – | –
29 | CC(c1cccc2ccccc12)N(CCc1cccc(F)c1)c1ncc2c(N)nc(N)nc2n1 (stereo not shown) [Compound 47] | 0.023 | 2 (≈ 4.41 µM) | – | – | – | –
30 | CC(c1ccc(OCc2c(F)cccc2Cl)cc1)N(C)c1ncc2c(N)nc(N)nc2n1 (stereo not shown) [Compound 48] | 0.007 | 2 (≈ 4.41 µM) | – | – | – | –
31 | CCCOCCN(c1ncc2c(N)nc(N)nc2n1)C(C)c1cccc2ccccc12 (stereo not shown) [Compound 49] | 0.02 | 2 (≈ 4.79 µM) | – | – | – | –
32 | CCN(c1ncc2c(N)nc(N)nc2n1)C(C)c1ccc(C)c2ccccc12 (stereo not shown) [Compound 50] | 0.004 | 2 (≈ 5.36 µM) | – | – | – | –
33 | Cc1[nH]ncc1CCCN(c1ncc2c(N)nc(N)nc2n1)C(C)c1cccc2ccccc12 (stereo not shown) [Compound 51] | 0.022 | 2 (≈ 4.41 µM) | – | – | – | –
34 | Cc1ccc(C(C)N(CC2CC2)c2ncc3c(N)nc(N)nc3n2)c2ccccc12 (stereo not shown) [Compound 52] | 0.022 | 2 (≈ 5.01 µM) | – | – | – | –
35 | CCc1ccc2ccc(C(C)N(CC3CC3)c3ncc4c(N)nc(N)nc4n3)cc2c1 (stereo not shown) [Compound 53] | 0.03 | 2 (≈ 4.84 µM) | – | – | – | –
36 | Cc1ccc([C@@H](C)N(CC2CC2)c2ncc3c(N)nc(N)nc3n2)c2ccccc12 [Compound 54] | 0.01 | 2 (≈ 5.01 µM) | – | – | – | –
37 | CC(c1ccc(Cl)c2ccccc12)N(CC1CC1)c1ncc2c(N)nc(N)nc2n1 (stereo not shown) [Compound 55] | 0.019 | 2 (≈ 4.76 µM) | – | – | – | –
38 | CCc1ccc2ccccc2c1C(C)N(C)c1ncc2c(N)nc(N)nc2n1 (stereo not shown) [Compound 56] | 0.093 | 2 (≈ 5.36 µM) | – | – | – | –
39 | CC(c1cccc2ccccc12)N(CCc1ccc(Cl)cc1)c1ncc2c(N)nc(N)nc2n1 (stereo not shown) [Compound 57] | 0.011 | 2 (≈ 4.26 µM) | – | – | – | –
40 | CC(c1cccc2ccccc12)N(CCCCO)c1ncc2c(N)nc(N)nc2n1 (stereo not shown) [Compound 58] | 0.015 | 2 (≈ 4.96 µM) | – | – | – | –
41 | C[C@H](c1csc2ccccc12)N(CC1CC1)c1ncc2c(N)nc(N)nc2n1 [Compound 59] | 0.005 | 2 (≈ 5.11 µM) | – | – | – | –
42 | CC(c1cccc2ccccc12)N(CCC(C)(C)C)c1ncc2c(N)nc(N)nc2n1 (stereo not shown) [Compound 60] | 0.029 | 2 (≈ 4.81 µM) | – | – | – | –
43 | CCCN(Cc1cnc2nc(N)nc(N)c2n1)c1ccccc1 [Compound 61] | 0.013 | 2 (≈ 6.46 µM) | – | – | – | –
44 | Nc1nc(N)c2nc(CNc3ccc(Cl)c4ccccc34)cnc2n1 [Compound 63] | – | – | – | – | 0.104 | –
45 | Cc1ccc(C(F)(F)F)cc1NCc1cnc2nc(N)nc(N)c2n1 [Compound 64] | – | – | – | – | 0.385 | –
46 | Nc1nc(N)c2cnc(NCc3ccc(Oc4ccc(F)cc4)cc3)nc2n1 [Compound 66] | – | – | < 1 | > 500000 | – | –
